Laboratory results taken from the supplement of paper PMC11208160.

test: recombinant barcode read abundance after kanamycin selection (control-corrected) (log10(CPM+1)); higher = more efficient recombination; sequences stand for … in AGTGCAGAGAAAATCGGCCAGTTTTCTCTGCCTGCAGTCCGCATGCCGT…AGATTTATGCAGCGGACTGCCTTTCTCCCAAAGTGATAAACCGGACAGTATCATGGACCGGTTTTCCCGGTAATCCGTATTTGCAAGGTTGGTTTCACT; site = the 11-nt target
In short: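 In E. coli, a pooled library matched targets to IS621 bridge RNA target-binding loops and was introduced alongside a donor plasmid. Cells went onto chloramphenicol/ampicillin/kanamycin with 0.1 mM IPTG or onto chloramphenicol/ampicillin LB agar as control, in duplicate. Recombination efficiency, from recombinant-junction barcodes as counts per million, is averaged and control-corrected. It is reported as log10(CPM+1).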
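Also: IS621 recombinase and bridge RNA in Escherichia coli cells.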

| Sequence | recombinant barcode read abundance (log10) |
| --- | --- |
| AACCATCCTTGGGTTCTAACCTGTTGCCT (site AACCAGCCTAG) | 0.0589 |
| GCGGGTACTTGGGTTCTAACCTGTTGCCT (site GCGTGTACTAG) | 0.0951 |
| GGCACCGCTTGGGTTCTAACCTGTTGCCT (site GGCACGGCTAG) | 0.164 |
| TGGGGTACTTGGGTTCTAACCTGTTGCCT (site TGGGGTACTAG) | 1.11 |
| TCAGCGACTTGGGTTCTAACCTGTTGCCT (site TCGGCGACTAG) | 0.27 |
| GACGTAACTTGGGTTCTAACCTGTTGCCT (site GAAGTAACTAG) | 0.0422 |
| AAGATAGCTTGGGTTCTAACCTGTTGCCT (site AAGAAAGCTAG) | 0.192 |
| AAGTGGTCTTGGGTTCTAACCTGTTGCTA (site TGAGTCCCTCT) | 0 |
| GTCTTCCCTTGGGTTCTAACCTGTTGCGT (site GTCTTCCCTAC) | 1.74 |
| GACCAGTCTTGGGTTCTAACCTGTTGCGG (site GACCAGTCTCC) | 1.97 |
| GTAAACCCTTGGGTTCTAACCTGTTGCGG (site GTCAACCCTCC) | 0.228 |
| GCTCAGACTTGGGTTCTAACCTGTTGCCT (site GCTCAGTCTAG) | 0.0442 |
| CACAGTGCTTGGGTTCTAACCTGTTGCCT (site CAGAGTACTAG) | 0.0936 |
| TCATAGCCTTGGGTTCTAACCTGTTGCTG (site TCACAGCCTCA) | 0.0283 |
| CTACGATCTTGGGTTCTAACCTGTTGCAC (site CTACGATCTGT) | 0.737 |
| GGGGCGGCTTGGGTTCTAACCTGTTGCCT (site GGGGCGACTAG) | 0.489 |
| ATAGGAACTTGGGTTCTAACCTGTTGCCT (site ATAGGAACTAG) | 1.4 |
| GGCATCCCTTGGGTTCTAACCTGTTGCCT (site GGCGTCCCTAG) | 0.184 |
| ATAGGGACTTGGGTTCTAACCTGTTGCTA (site ATAAGGACTTA) | 1.97 |
| ACTTAGACTTGGGTTCTAACCTGTTGCGG (site ACTTAGACTCC) | 2.56 |
| TTGGTAGCTTGGGTTCTAACCTGTTGCCT (site TTGGGAGCTAG) | 0.127 |
| TAGACGGCTTGGGTTCTAACCTGTTGCAT (site GGATACACTCG) | 0.191 |

| Sequence | recombinant barcode read abundance (log10) |
| --- | --- |
| TCGGATACTTGGGTTCTAACCTGTTGCTT (site TCGGATACTAC) | 0.249 |
| GAGCGCTCTTGGGTTCTAACCTGTTGCTC (site GAGCGCTCTTA) | 0.381 |
| GAATCTACTTGGGTTCTAACCTGTTGCCT (site GTATCTACTAG) | 0.136 |
| ACCGAGGCTTGGGTTCTAACCTGTTGCCT (site AACGACGCTAG) | 0.193 |
| GTCGTAGCTTGGGTTCTAACCTGTTGCCT (site GTCGTAGCTAG) | 0.256 |
| GTCCCTCCTTGGGTTCTAACCTGTTGCAT (site GTCCCTCCTAA) | 0.746 |
| ATGTCTCCTTGGGTTCTAACCTGTTGCCT (site ATGTCTCCTAG) | 1 |
| CGAGAGACTTGGGTTCTAACCTGTTGCTT (site CGAGAGACTAA) | 0.994 |
| GACTGCCCTTGGGTTCTAACCTGTTGCCT (site GGCTGCCCTAG) | 0.0269 |
| ATGGTGCCTTGGGTTCTAACCTGTTGCCT (site ATGGTGCCTAG) | 2.65 |
| CCATTCCCTTGGGTTCTAACCTGTTGCTA (site CCATTCCCTTA) | 0.43 |
| TAGTATACTTGGGTTCTAACCTGTTGCTG (site TCGTATACTCC) | 0.0803 |
| TAAGGTCCTTGGGTTCTAACCTGTTGCTA (site TAAGGTCCTTA) | 1.81 |
| AAAGTCCCTTGGGTTCTAACCTGTTGCCT (site AAAGTCCCTAG) | 1.03 |
| ATGTCGTCTTGGGTTCTAACCTGTTGCCT (site AAGTCGTCTAG) | 0.0812 |
| TGGCGTCCTTGGGTTCTAACCTGTTGCCT (site TGGAGTCCTAG) | 0.0306 |
| GTCGCCACTTGGGTTCTAACCTGTTGCCT (site GTGGCCACTAG) | 0.159 |
| ACAATGTCTTGGGTTCTAACCTGTTGCGG (site ACATTGTCTCC) | 0.427 |
| GTTTCCTCTTGGGTTCTAACCTGTTGCCG (site GTTTCCTCTCG) | 0.78 |
| ACGGAGTCTTGGGTTCTAACCTGTTGCTA (site TACAGACCTCT) | 0.0854 |
| CATAGGCCTTGGGTTCTAACCTGTTGCAT (site CATAGTCCTAT) | 0.105 |
| CAGTTGTCTTGGGTTCTAACCTGTTGCCT (site CAGTTGTCTAG) | 1.75 |

| Sequence | recombinant barcode read abundance (log10) |
| --- | --- |
| CTAATATCTTGGGTTCTAACCTGTTGCCA (site CTAATATCTTG) | 0.0293 |
| ATGCGCCCTTGGGTTCTAACCTGTTGCCT (site ATGCGCCCTAG) | 0.717 |
| GAGGGTACTTGGGTTCTAACCTGTTGCAT (site GAGAGTACTAT) | 1.16 |
| CTCTTGTCTTGGGTTCTAACCTGTTGCTG (site CTCTTGTCTCA) | 1.01 |
| CTACAATCTTGGGTTCTAACCTGTTGCCT (site CTACAATCTAG) | 0.979 |
| AGTATGTCTTGGGTTCTAACCTGTTGCCT (site TGTATGTCTAG) | 0.116 |
| CATAATTCTTGGGTTCTAACCTGTTGCCT (site CATAATTCTAG) | 0.445 |
| TATAGCTCTTGGGTTCTAACCTGTTGCCT (site TATAGCTCTAG) | 0.479 |
| CGTCAGCCTTGGGTTCTAACCTGTTGCCT (site CGTCATCCTAG) | 0.0681 |
| TATTGGACTTGGGTTCTAACCTGTTGCAC (site TATTGGACTCT) | 0.122 |
| GTCGGAGCTTGGGTTCTAACCTGTTGCGG (site GTCGGAGCTCC) | 1.97 |
| TTAGTTGCTTGGGTTCTAACCTGTTGCCT (site TTAGTCGCTAG) | 0.0596 |
| GTCGGCGCTTGGGTTCTAACCTGTTGCCT (site GTTGGCGCTAG) | 0.256 |
| CGCCACACTTGGGTTCTAACCTGTTGCCT (site CGTCACACTAG) | 1.22 |
| CTAGTGACTTGGGTTCTAACCTGTTGCGA (site CTAGTGACTCC) | 0.576 |
| GTATCATCTTGGGTTCTAACCTGTTGCCT (site GTATCAGCTAG) | 0.0191 |
| CCAATGTCTTGGGTTCTAACCTGTTGCGT (site GTTCGTCCTTG) | 0.047 |
| CCTAGAACTTGGGTTCTAACCTGTTGCCT (site CCTAGAGCTAG) | 0.126 |
| GTATATACTTGGGTTCTAACCTGTTGCTT (site GTATATACTAA) | 0.578 |
| GACCTCCCTTGGGTTCTAACCTGTTGCTG (site GACCTCCCTCA) | 2.16 |
| TATCCCTCTTGGGTTCTAACCTGTTGCCT (site TATCCCTCTAG) | 1.14 |
| CCAAGTACTTGGGTTCTAACCTGTTGCTT (site CCACGAACTAA) | 0.106 |

| Sequence | recombinant barcode read abundance (log10) |
| --- | --- |
| CTCTGTCCTTGGGTTCTAACCTGTTGCTG (site GCTGAGACTAC) | 0.0997 |
| TCACACACTTGGGTTCTAACCTGTTGCCT (site TCACACACTAG) | 1.06 |
| CGCGTAACTTGGGTTCTAACCTGTTGCCT (site CGCGTAACTAG) | 0.123 |
| CGAGCTCCTTGGGTTCTAACCTGTTGCGT (site CGAGCTCCTAG) | 0.813 |
| CTATTCTCTTGGGTTCTAACCTGTTGCTA (site CTATACTCTTG) | 0.115 |
| ACGACTTCTTGGGTTCTAACCTGTTGCCT (site ACGACTCCTAG) | 0.167 |
| CTCGTAACTTGGGTTCTAACCTGTTGCCT (site CTCGTGACTAG) | 0.123 |
| CTCTTCCCTTGGGTTCTAACCTGTTGCTT (site CTATTCCCTCA) | 0.155 |
| CGAGACGCTTGGGTTCTAACCTGTTGCCT (site CCATACGCTAG) | 0.109 |
| ACCCCGTCTTGGGTTCTAACCTGTTGCCT (site ACCCTGTCTCG) | 0.0376 |
| ACGACTCCTTGGGTTCTAACCTGTTGCTT (site ACGAATCCTAA) | 0.224 |
| TCATATTCTTGGGTTCTAACCTGTTGCCT (site TCATATTCTAG) | 0.0782 |
| TCAAGGCCTTGGGTTCTAACCTGTTGCCT (site CCAAGGCCTAG) | 0.084 |
| TCTCTCGCTTGGGTTCTAACCTGTTGCCT (site CAGAATCCTCC) | 0.108 |
| AACTATCCTTGGGTTCTAACCTGTTGCAT (site AACTATCCTAT) | 0.227 |
| CTCTCGTCTTGGGTTCTAACCTGTTGCCT (site CTCTCGTCTAG) | 0.944 |
| CAAAGTCCTTGGGTTCTAACCTGTTGCAT (site CAAAGTCCTAC) | 0.0225 |
| CAAACATCTTGGGTTCTAACCTGTTGCCT (site CAAACATCTAG) | 0.162 |
| GTGACCTCTTGGGTTCTAACCTGTTGCTG (site GTGACCTCTCA) | 1.51 |
| CGAACCGCTTGGGTTCTAACCTGTTGCCT (site CGAACCGCTAG) | 0.974 |
